Earlier results in patent US20120141587A1, “COMPOSITIONS AND METHODS FOR TREATMENT OR PREVENTION OF POST-OPERATIVE ORGAN OR TISSUE INFLAMMATION” (priority 2009, published 2012).

Legend:
atrial fibrillation = conditions: instilled into a canine's pericardial sac; Ayers et al. 1996
inducible atrial flutter = conditions: oral; canine sterile pericarditis model; Goldstein et al. 2007

CCCCc1oc2ccccc2c1C(=O)c1cc(I)c(OCCN(CC)CC)c(I)c1 [amiodarone]
effect on atrial fibrillation (atrial fibrillation): effectiveness in suppressing atrial fibrillation

C[C@]12C=CC(=O)C=C1CC[C@@H]1[C@@H]2C(=O)C[C@@]2(C)[C@H]1CC[C@]2(O)C(=O)CO [prednisone]
effect on inducible atrial flutter (inducible atrial flutter): prevent inducible atrial flutter
